According to US20240360151A1 (SANOFI, priority 2023, published 2024):

Each compound was assayed against T1, NLRP3 inflammasome (Homo sapiens, UniProt Q96P20) (assay: IL-1β secretion assay (NLRP3 IC50) in LPS-primed, nigericin-activated THP-1 cells, HTRF). Conditions: monocytic THP-1 cells; LPS 10 ng/mL 3 h priming, then compound + nigericin 10 μM 2 h; relative IC50, 10 concentrations, geometric mean.
T1 construct: endogenous in cells; host or cells: THP-1 monocytic cells
Type: cell-based
Summary of the method: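 THP-1 cells primed with LPS 10 ng/mL for 3 h at 37° C., then compound (10-point 1:3 dilution, 0.1% DMSO) added with 10 μM nigericin for 2 h. Supernatant IL-1β measured by HTRF; relative IC50 from a 4-parameter logistic fit, reported as geometric mean.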

T1 sequence (Q96P20 whole entry): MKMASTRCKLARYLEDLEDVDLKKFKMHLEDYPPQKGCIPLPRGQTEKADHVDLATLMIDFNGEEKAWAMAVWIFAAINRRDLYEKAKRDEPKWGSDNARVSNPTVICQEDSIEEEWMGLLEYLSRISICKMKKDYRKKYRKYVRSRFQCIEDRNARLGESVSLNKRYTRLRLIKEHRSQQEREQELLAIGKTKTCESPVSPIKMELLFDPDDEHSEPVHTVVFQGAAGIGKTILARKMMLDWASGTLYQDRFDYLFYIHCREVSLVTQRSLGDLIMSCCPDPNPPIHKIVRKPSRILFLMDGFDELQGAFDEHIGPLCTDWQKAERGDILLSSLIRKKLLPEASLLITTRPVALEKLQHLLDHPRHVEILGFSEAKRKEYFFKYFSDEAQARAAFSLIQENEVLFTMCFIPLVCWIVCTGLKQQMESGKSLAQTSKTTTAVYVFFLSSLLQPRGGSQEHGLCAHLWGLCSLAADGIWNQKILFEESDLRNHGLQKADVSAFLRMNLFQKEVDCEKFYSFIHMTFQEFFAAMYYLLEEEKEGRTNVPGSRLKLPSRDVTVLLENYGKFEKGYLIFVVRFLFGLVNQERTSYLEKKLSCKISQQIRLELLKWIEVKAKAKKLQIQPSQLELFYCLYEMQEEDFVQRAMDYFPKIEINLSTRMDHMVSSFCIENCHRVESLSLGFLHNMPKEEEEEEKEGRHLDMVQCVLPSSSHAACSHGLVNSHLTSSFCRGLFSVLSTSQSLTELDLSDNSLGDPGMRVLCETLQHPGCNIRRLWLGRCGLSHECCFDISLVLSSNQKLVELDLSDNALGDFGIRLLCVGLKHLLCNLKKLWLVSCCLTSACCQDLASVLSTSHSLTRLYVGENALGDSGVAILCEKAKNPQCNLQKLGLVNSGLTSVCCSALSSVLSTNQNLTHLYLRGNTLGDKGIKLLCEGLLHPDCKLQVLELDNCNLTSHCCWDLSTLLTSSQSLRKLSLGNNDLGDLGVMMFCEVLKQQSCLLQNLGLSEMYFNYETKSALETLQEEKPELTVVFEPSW

Going from `Cc1cc(C)c(-c2nnc(N3CCO[C@H](CO)C3)cc2CO)c(O)c1` [Example 186, 2-[4-(hydroxymethyl)-6-[(2S)-2-(hydroxymethyl)morpholin-4-yl]pyridazin-3-yl]-3,5-dimethyl-phenol] to `Cc1cc(C)c(O)c(-c2ccc(N3CCO[C@H](CO)C3)nn2)c1` [Example 152, 2-[6-[(2S)-2-(hydroxymethyl)morpholin-4-yl]pyridazin-3-yl]-4,6-dimethylphenol], the IC50 rises from 1050 nM to 5980 nM (5.7-fold).

Going from `CNCC[C@@H]1CN(c2ccc(-c3c(C)cc(C(F)(F)F)cc3O)nn2)CCO1` (single isomer, unassigned) [Example 331] to `CNCC[C@H]1CN(c2ccc(-c3c(C)cc(C(F)(F)F)cc3O)nn2)CCO1` (single isomer, unassigned) [Example 332], the IC50 falls from 1080 nM to 396 nM (2.7-fold). The second is the more potent here.

`Cc1cc(C)c(-c2ccc(N3CCC4(COCCN4C)C3)nn2)c(O)c1` (centres unmarked) [Example 444, 3,5-dimethyl-2-[6-(6-methyl-9-oxa-2,6-diazaspiro[4.5]decan-2-yl)pyridazin-3-yl]phenol] and `Cc1cc(C)c(-c2ccc(N3CC4(CCN4C)C3)nn2)c(O)c1` [Example 91, 3,5-dimethyl-2-[6-(1-methyl-1,6-diazaspiro[3.3]heptan-6-yl)pyridazin-3-yl]phenol] are within 1.5-fold of each other in IC50: 4060 nM for the first, 4930 nM for the second.

First: Cc1cc(C)c(-c2ccc(N3CCOC[C@H]3CN)nn2)c(O)c1 [Example 123, 2-[6-[(3R)-3-(aminomethyl)morpholin-4-yl]pyridazin-3-yl]-3,5-dimethyl-phenol; 2,2,2-trifluoroacetic acid]
Second: Cc1cc(C)c(-c2ccc(N3CCOC[C@@H]3CN)nn2)c(O)c1 [Example 124, 2-[6-[(3S)-3-(aminomethyl)morpholin-4-yl]pyridazin-3-yl]-3,5-dimethyl-phenol]
The IC50 of the first is 1.9-fold higher: 2020 nM for the first, 1050 nM for the second. The second is the more potent here.

Going from `Cc1cc(C)c(-c2ccc(N3CCC[C@@H]4CCN(C)C[C@H]43)nn2)c(O)c1` [Example 517, 2-[6-[(4aR,8aS)-7-methyl-2,3,4,4a,5,6,8,8a-octahydro-1,7-naphthyridin-1-yl]pyridazin-3-yl]-3,5-dimethyl-phenol] to `Cc1cc(C(F)(F)F)cc(O)c1-c1ccc(N2CCC[C@H]3CCN(C)C[C@H]32)nn1` [Example 524, 2-[6-[(4aS,8aS)-7-methyl-2,3,4,4a,5,6,8,8a-octahydro-1,7-naphthyridin-1-yl]pyridazin-3-yl]-3-methyl-5-(trifluoromethyl)phenol], the IC50 falls from 1340 nM to 8 nM (170-fold).

Going from `CN1CC[C@@H]2CCN(c3cc(C(F)F)c(-c4ccc(Cl)cc4O)nn3)[C@@H]2C1` (single isomer, unassigned) [Example 501] to `CN1CC[C@H]2CCN(c3cc(C(F)F)c(-c4ccc(Cl)cc4O)nn3)[C@H]2C1` (single isomer, unassigned) [Example 500], the IC50 rises from under 0.3 nM to 62 nM. The first is the more potent here.

Going from `Cc1cc(C)c(-c2ccc(N3CC4(CCC(O)CC4)C3)nn2)c(O)c1` [Example 83, 2-[6-(2-hydroxy-4,6-dimethyl-phenyl)pyridazin-3-yl]-2-azaspiro[3.5]nonan-7-ol] to `Cc1cc(C)c(-c2ccc(N3CCC4(CC3)CNC4)nn2)c(O)c1` [Example 7, 2-[6-(2,7-diazaspiro[3.5]nonan-7-yl)pyridazin-3-yl]-3,5-dimethyl-phenol; 2,2,2-trifluoroacetic acid], the IC50 rises from 2790 nM to 5470 nM (2-fold).

Compared with `Cc1cc(C)c(-c2ccc(N3CCCc4c3ccnc4O)nn2)c(O)c1` [Example 242, 1-[6-(2-hydroxy-4,6-dimethyl-phenyl)pyridazin-3-yl]-3,4-dihydro-2H-1,6-naphthyridin-5-ol], `Cc1cc(C)c(-c2ccc(N3CC[C@@H]3CO)nn2)c(O)c1` [Example 118, 2-[6-[(2R)-2-(hydroxymethyl)azetidin-1-yl]pyridazin-3-yl]-3,5-dimethyl-phenol] is 2.8-fold lower in IC50: 2120 nM for the first, 758 nM for the second. The second is the more potent here.

First: Cc1cc(C(F)(F)F)cc(O)c1-c1ccc(N2CCOC(CN(C)C)C2)nn1 (centres unmarked) [Example 24, 2-[6-[2-[(dimethylamino)methyl]morpholin-4-yl]pyridazin-3-yl]-3-methyl-5-(trifluoromethyl)phenol]
Second: Cc1cc(C(F)(F)F)cc(O)c1-c1ccc(N2CCO[C@H](CN(C)C)C2)nn1 [Example 27, 2-[6-[(2R)-2-[(dimethylamino)methyl]morpholin-4-yl]pyridazin-3-yl]-3-methyl-5-(trifluoromethyl)phenol]
The IC50 of the first is 2-fold lower: 638 nM for the first, 1260 nM for the second. The first is the more potent here.

`Cc1cc(C(F)(F)F)cc(O)c1-c1ccc(N2CC[C@@H](CO)C2=O)nn1` (single isomer, unassigned) [Example 326] and `Cc1cc(C(F)(F)F)cc(O)c1-c1ccc(N2CC[C@H](CO)C2=O)nn1` (single isomer, unassigned) [Example 325] are within 1.5-fold of each other in IC50: 198 nM for the first, 275 nM for the second.

First: CC(=O)N1CC[C@@H]2CCN(c3cc(C(F)F)c(-c4ccc(C(F)(F)F)cc4O)nn3)[C@@H]2C1 (single isomer, unassigned) [Example 510]
Second: CC(=O)N1CC[C@H]2CCN(c3ccc(-c4c(C)cc(C(F)(F)F)cc4O)nn3)[C@H]2C1 [Example 369, 1-[(3aR,7aR)-1-[6-[2-hydroxy-6-methyl-4-(trifluoromethyl)phenyl]pyridazin-3-yl]-3,3a,4,5,7,7a-hexahydro-2H-pyrrolo[2,3-c]pyridin-6-yl]ethanone]
The IC50 of the first is 1.7-fold lower: 280 nM for the first, 476 nM for the second.

First: Cc1cc(C)c(-c2cc(C(F)F)c(N3CC[C@H]4CCN(C)C[C@H]43)nn2)c(O)c1 (single isomer, unassigned) [Example 487]
Second: CC(=O)N1CC[C@@H]2CCN(c3nnc(-c4c(C)cc(C)cc4O)cc3C(F)F)[C@@H]2C1 (single isomer, unassigned) [Example 512]
The IC50 of the first is 280-fold lower: 1 nM for the first, 276 nM for the second. The first is the more potent here.

Compared with `Cc1cc(C)c(-c2ccc(N3C[C@H]4NCCO[C@@H]4C3)nn2)c(O)c1` [Example 125, 2-[6-[(4aR,7aR)-3,4,4a,5,7,7a-hexahydro-2H-pyrrolo[3,4-b][1,4]oxazin-6-yl]pyridazin-3-yl]-3,5-dimethylphenol], `Cc1cc(C)c(-c2ccc(N3CCOC([C@H](C)O)C3)nn2)c(O)c1` (single isomer, unassigned) [Example 99] is 1.8-fold lower in IC50: 1320 nM for the first, 752 nM for the second. The second is the more potent here.

First: Cc1cc(C)c(-c2ccc(N3CCO[C@@H](C(N)=O)C3)nn2)c(O)c1 [Example 183, (2R)-4-[6-(2-hydroxy-4,6-dimethylphenyl)pyridazin-3-yl]morpholine-2-carboxamide]
Second: Cc1cc(C)c(-c2ccc(N3CCO[C@@H](CS)C3)nn2)c(O)c1 [Example 305, 3,5-dimethyl-2-[6-[(2R)-2-(sulfanylmethyl)morpholin-4-yl]pyridazin-3-yl]phenol]
The IC50 of the first is 4.1-fold lower: 685 nM for the first, 2820 nM for the second. The first is the more potent here.

Compared with `Cc1cc(N2CCO[C@H](CO)C2)nnc1-c1ccc(C(F)(F)F)cc1O` [Example 97, 2-[6-[(2S)-2-(hydroxymethyl)morpholin-4-yl]-4-methyl-pyridazin-3-yl]-5-(trifluoromethyl)phenol], `Cc1cc(C(F)(F)F)cc(O)c1-c1ccc(N2CCO[C@@H](CC#N)C2)nn1` (single isomer, unassigned) [Example 328] is 5.8-fold higher in IC50: 38 nM for the first, 219 nM for the second.

Compared with `Cc1cc(C(F)(F)F)cc(O)c1-c1ccc(N2CCOc3c[nH]nc32)nn1` [Example 360, 2-[6-(5,6-dihydro-2H-pyrazolo[4,3-b][1,4]oxazin-7-yl)pyridazin-3-yl]-3-methyl-5-(trifluoromethyl)phenol], `Cc1cc(C(F)(F)F)cc(O)c1-c1ccc(N2CCC[C@@H]3[C@H]2CCCN3C)nn1` [Example 516, 2-[6-[(4aR,8aR)-5-methyl-2,3,4,4a,6,7,8,8a-octahydro-1,5-naphthyridin-1-yl]pyridazin-3-yl]-3-methyl-5-(trifluoromethyl)phenol] is 2.6-fold higher in IC50: 420 nM for the first, 1080 nM for the second.

Going from `Cc1cc(C(F)(F)F)cc(O)c1-c1ccc(N2CCO[C@H]3CCOC[C@@H]32)nn1` (racemic) [Example 448, 3-methyl-2-[6-[rac-(4aS,8aS)-3,4a,5,7,8,8a-hexahydro-2H-pyrano[4,3-b][1,4]oxazin-4-yl]pyridazin-3-yl]-5-(trifluoromethyl)phenol] to `CCc1cc(C(F)(F)F)cc(O)c1-c1ccc(N2CCO[C@@H]3CCN(C)C[C@@H]32)nn1` [Example 481, 2-[6-[(4aS,8aR)-6-methyl-3,4a,5,7,8,8a-hexahydro-2H-pyrido[4,3-b][1,4]oxazin-4-yl]pyridazin-3-yl]-3-ethyl-5-(trifluoromethyl)phenol], the IC50 falls from 370 nM to 2 nM (180-fold).

First: Cc1cc(C)c(-c2ccc(N3CCOCC34CCCN(C)C4)nn2)c(O)c1 (centres unmarked) [Example 449, 3,5-dimethyl-2-[6-(8-methyl-4-oxa-1,8-diazaspiro[5.5]undecan-1-yl)pyridazin-3-yl]phenol]
Second: Cc1cc(C)c(-c2ccc(N3CCOCC34CN(C)C4)nn2)c(O)c1 [Example 455, 3,5-dimethyl-2-[6-(2-methyl-8-oxa-2,5-diazaspiro[3.5]nonan-5-yl)pyridazin-3-yl]phenol]
The IC50 of the first is 1.7-fold lower: 4190 nM for the first, 7150 nM for the second.

Compared with `Cc1cc(C)c(-c2ccc(N3CC(=O)N[C@H](CO)C3)nn2)c(O)c1` (single isomer, unassigned) [Example 330], `Cc1cc(C)c(-c2ccc(N3CCC4(CN(C)CCO4)C3)nn2)c(O)c1` (centres unmarked) [Example 440, 3,5-dimethyl-2-[6-(9-methyl-6-oxa-2,9-diazaspiro[4.5]decan-2-yl)pyridazin-3-yl]phenol] is 3.3-fold higher in IC50: 987 nM for the first, 3280 nM for the second.

Compared with `Cc1ccc(-c2nnc(N3CC[C@@H]4CCN(C)C[C@@H]43)cc2C(F)F)c(O)c1` (single isomer, unassigned) [Example 506], `CC(=O)N1CCC[C@H]2[C@@H]1CCCN2c1ccc(-c2c(C)cc(C(F)(F)F)cc2O)nn1` [Example 463, 1-[(4aS,8aS)-5-[6-[2-hydroxy-6-methyl-4-(trifluoromethyl)phenyl]pyridazin-3-yl]-2,3,4,4a,6,7,8,8a-octahydro-1,5-naphthyridin-1-yl]ethanone] is 28-fold higher in IC50: 135 nM for the first, 3780 nM for the second.

Compound `NC1CC2(CCN(c3ccc(-c4c(O)cc(Cl)cc4Cl)nn3)CC2)C1` [Example 32, 2-[6-(2-amino-7-azaspiro[3.5]nonan-7-yl)pyridazin-3-yl]-3,5-dichloro-phenol] has an IC50 of 3500 nM.
